Entries after “also recorded” stand apart in the source; their conditions may differ.
Key:
14-3-3-ζ [1] = target: T1, 14-3-3-ζ (Homo sapiens, UniProt P63104); experiment: ITC of integrin tail fragments with 14-3-3-ζ; type: binding; conditions: 298 K, pH 6.5, fragment in cell, 14-3-3-ζ in syringe
T1 construct: His10 (cleaved yes); made in house
T1 sequence (P63104 1-245): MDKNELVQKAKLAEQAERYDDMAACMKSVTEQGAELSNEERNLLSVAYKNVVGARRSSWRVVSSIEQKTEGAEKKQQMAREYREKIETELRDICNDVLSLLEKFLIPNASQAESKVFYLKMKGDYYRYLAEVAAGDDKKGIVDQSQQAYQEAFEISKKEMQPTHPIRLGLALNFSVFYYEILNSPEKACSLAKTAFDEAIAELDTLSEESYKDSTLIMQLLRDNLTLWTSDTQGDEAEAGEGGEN
Method: Phosphorylated α4 synthetic peptides were purchased from GL Biochem Ltd. (Shanghai). All recombinant proteins and synthetic peptides were prepared in 20 mM sodium phosphate and 50 mM NaCl (pH 6.5), and concentrations were determined by UV absorbance at 280 nm. ITC experiments using a VP-ITC200 instrument (MicroCal) were performed at 298 K as follows: the cell (volume, ~ 200 μl) contained the different integrin tail fragments, and the syringe (volume, ~ 40 μl) contained 14-3-3-ζ. A first injection of 2 μl was followed by 15 injections of 2.5 μl, with a stirring speed of 1500 rpm and a delay between injections of 180 s. A blank titration was performed by injecting 14-3-3-ζ into buffer to take the heat of dilution into account. Experiments were repeated twice for each sample. Raw data were processed and fitted with MicroCal Origin software using a one-site model where the error function is calculated as the sum of the squared deviations between the data and the model curve.

14-3-3-ζ [2] = target: T1, 14-3-3-ζ; experiment: Fluorescence polarization titration of fluorescein-labeled integrin tails with 14-3-3-ζ; type: binding; conditions: 1 μM, ex 485 nm, em 520 nm; for binding to 14-3-3-ζ by fluorescence polarization, in words: fluorescein-labeled tail
Method: Fig. 6 Fluorescence polarization and ITC of interactions between integrin tails and 14-3-3-ζ. (a) Fluorescence polarization titrations of fluorescein-labeled β1A, β3 and α4 with 14-3-3-ζ. […] (b–d) ITC sensorgram of an in-cell 200 μM β1A, β2 (same as in Fig. 5a) or β3 samples injected with 2 mM 14-3-3-ζ.
For fluorescence polarization experiments, integrin tails were labeled with fluorescein-5-maleimide (Invitrogen) linked to an engineered C-terminal Cys residue. Measurements were performed using 96-well microplates (Corning) in a PHERAstar FS microplate reader (BMG Labtech). Fluorescein-labeled integrin tails at 1 μM concentration were excited at 485 nm, and polarization was recorded at 520 nm.

14-3-3-ζ [3] = target: T1, 14-3-3-ζ; experiment: 15N-1H HSQC NMR titration of 15N-labeled integrin tails with unlabeled 14-3-3-ζ; type: binding; conditions: 15N-labeled tail 0.1 mM, equimolar unlabeled 14-3-3-ζ; NMR buffer pH 6.5, 25 °C
Method: (§1) Samples were prepared in NMR buffer (pH 6.5) with 5% D2O, and experiments were performed at 25 °C. Titration experiments were collected on a 500-MHz spectrometer using a water flip-back-embedded gradient enhanced ^15N–^1H HSQC pulse sequence.[46] For the assignment of the α4 and β2 backbone resonances, ^15N–^13C integrin tails of 0.6 mM concentration were used to measure CBCA(CO)NH and CBCANH experiments on a Bruker 500-MHz instrument equipped with a cryogenic probe head. Data were processed using NMRPipe[47] and analyzed with the programs CARA/XEASY[48] or CCPN Analysis.[49]

[4] = tested on: paxillin (residues 1–323); experiment: NMR test of α4 integrin tail interaction with paxillin N-terminal region; type: binding; conditions: paxillin residues 1–323 with all LD motifs
Method: (§2) The interactions of α4 and 14-3-3-ζ with paxillin were also investigated. The association of paxillin with α4 has been detected using pull-down experiments with glutathione S-transferase fusion proteins[22,32,33] and, very recently, by NMR in a study that also reports the solution structure of the α4 integrin tail.[34] […] The possibility that a paxillin/14-3-3-ζ association depends on phosphorylation was also assessed. The ELM (eukaryotic linear motif) server[35] indicated three putative 14-3-3 binding motifs in the paxillin N-terminus; of these, only one has been reported to be phosphorylated in vivo[36] (Supplementary Fig. 1a). […] The recent report of paxillin binding to α4 detected by NMR used shorter paxillin fragments than us, covering the LD2–LD4 region.[34] It is possible that, in the whole N-terminal paxillin, the α4 interaction sites are masked, which would explain the absence of an interaction in our studies.
Samples were prepared in NMR buffer (pH 6.5) with 5% D2O, and experiments were performed at 25 °C. Titration experiments were collected on a 500-MHz spectrometer using a water flip-back-embedded gradient enhanced ^15N–^1H HSQC pulse sequence.[46] […] Data were processed using NMRPipe[47] and analyzed with the programs CARA/XEASY[48] or CCPN Analysis.[49]

[5] = tested on: paxillin (residues 1–323); experiment: ITC test of pairwise interaction with paxillin N-terminal region; type: binding
Method: as §2
Phosphorylated α4 synthetic peptides were purchased from GL Biochem Ltd. (Shanghai). All recombinant proteins and synthetic peptides were prepared in 20 mM sodium phosphate and 50 mM NaCl (pH 6.5), and concentrations were determined by UV absorbance at 280 nm. […] Raw data were processed and fitted with MicroCal Origin software using a one-site model where the error function is calculated as the sum of the squared deviations between the data and the model curve.

14-3-3-ζ S58A = experiment: NMR binding of 14-3-3-ζ variant S58A to labeled integrin tail; conditions: labeled β1A
Text: (§3) To gain further insight into the β1A/14-3-3-ζ association, we investigated the effects of 14-3-3-ζ substitutions on binding to β1A integrin tail. It has been reported that the substitution S58A in 14-3-3-β abolishes the β1A interaction.[38] S58 regulates the dimeric state of 14-3-3,[39] but it is not involved directly in binding to phospho-peptides. The binding of 14-3-3-ζ variants S58A and S58E to labeled β1A was studied using NMR. […] A similar result was obtained with the β2 integrin tail (data not shown).
as §1

14-3-3-ζ S58E = experiment: NMR binding of 14-3-3-ζ variant S58E to labeled integrin tail; conditions: labeled β1A
Text: as §3, §1

Substance	binding to 14-3-3-ζ by ITC, in words (14-3-3-ζ [1])	binding to 14-3-3-ζ by fluorescence polarization, in words (14-3-3-ζ [2])	change of integrin tail resonances on addition of 14-3-3-ζ, in words (14-3-3-ζ [3])	interaction with paxillin by NMR, in words [4]	interaction with paxillin by ITC, in words [5]	Kd (14-3-3-ζ [2]; fluorescence polarization, tail labeled with fluorescein-5-maleimide at engineered C-terminal Cys, single-site model)	change of integrin tail resonance intensity with 14-3-3-ζ S58A compared to wt, in words (14-3-3-ζ S58A)	change of integrin tail resonance intensity with 14-3-3-ζ S58E, in words (14-3-3-ζ S58E)
GPLGSKAGFFKRQYKSILQEENRRDSWSYINSKSNDD [α4 wt, recombinant α4 integrin cytoplasmic tail, residues 1001–1032]	a Kd could not be determined by ITC; also recorded: the interaction is weak, in the millimolar range	No binding was detected	significant decrease in α4 amide resonance intensities	no specific interaction	no pairwise interaction was detected by ITC	–	–	–
GS KLLMIIHDRREFAKFEKEKMNAKWDTGENPIYKSAVTTVVNPKYEGK (GSKLLMIIHDRREFAKFEKEKMNAKWDTGENPIYKSAVTTVVNPKYEGK; left off: His10, N-terminal, cleaved) [β1A wt, recombinant β1A integrin tail, residues 752–798]	–	clearly binds	intensity reduction for several resonances	–	–	95 ± 16 µM	significant reduction in β1A resonance intensity change	the intensities change even less

Source: PMC4068353, “Characterization of 14-3-3-ζ Interactions with Integrin Tails” (Journal of Molecular Biology, 2013)
